Measurements taken from ChEMBL document CHEMBL3734705, “Synthesis and in vitro cytotoxicity of novel C-12 substituted-14-deoxy-andrographolide derivatives as potent anti-cancer agents” (2015).

Assays:
MDA-MB-468 [1] = assay: Cytotoxicity against human MDA-MB-468 cells assessed as growth inhibition at 10 uM after 48 hrs by SRB assay; assay type: functional; conditions: MDA-MB-468, 48 h, read-out: GI
[2] = Cytotoxicity against human SKOV3 cells assessed as growth level at 10 uM after 48 hrs by SRB assay; assay type: functional, SK-OV-3
NCI-H322M = assay: Cytotoxicity against human NCI-H322M cells assessed as growth inhibition at 10 uM after 48 hrs by SRB assay; assay type: functional; conditions: read-out: GI
[3] = Cytotoxicity against human IGROV1 cells assessed as growth level at 10 uM after 48 hrs by SRB assay; assay type: functional, IGROV-1
[4] = Cytotoxicity against human TK10 cells assessed as growth inhibition at 10 uM after 48 hrs by SRB assay; assay type: functional; conditions: TK-10, 48 h, read-out: GI
MDA-MB-435 [5] = assay: Cytotoxicity against human MDA-MB-435 cells assessed as growth inhibition at 10 uM after 48 hrs by SRB assay; assay type: functional; conditions: MDA-MB-435, 48 h, read-out: GI
MDA-MB-468 [6] = assay: Cytotoxicity against human MDA-MB-468 cells assessed as growth level at 10 uM after 48 hrs by SRB assay; assay type: functional
[7] = Cytotoxicity against human TK10 cells assessed as growth level at 10 uM after 48 hrs by SRB assay; assay type: functional, TK-10
A549 = assay: Cytotoxicity against human A549 cells assessed as growth inhibition at 10 uM after 48 hrs by SRB assay; assay type: functional; conditions: A549, 48 h, read-out: GI
[8] = Cytotoxicity against human PC3 cells assessed as growth inhibition at 10 uM after 48 hrs by SRB assay; assay type: functional; conditions: PC-3, 48 h, read-out: GI
[9] = Cytotoxicity against human SF268 cells assessed as growth level at 10 uM after 48 hrs by SRB assay; assay type: functional, SF-268
[10] = Cytotoxicity against human SW620 cells assessed as growth level at 10 uM after 48 hrs by SRB assay; assay type: functional, SW-620
A498 = assay: Cytotoxicity against human A498 cells assessed as growth level at 10 uM after 48 hrs by SRB assay; assay type: functional
[11] = Cytotoxicity against human OVCAR4 cells assessed as growth inhibition at 10 uM after 48 hrs by SRB assay; assay type: functional; conditions: OVCAR-4, 48 h, read-out: GI
[12] = Cytotoxicity against human SF539 cells assessed as growth level at 10 uM after 48 hrs by SRB assay; assay type: functional, SF-539
[13] = Cytotoxicity against human SNB75 cells assessed as growth inhibition at 10 uM after 48 hrs by SRB assay; assay type: functional; conditions: SNB-75, 48 h, read-out: GI
786-0 [14] = assay: Cytotoxicity against human 786-0 cells assessed as growth inhibition at 10 uM after 48 hrs by SRB assay; assay type: functional; conditions: 786-0, 48 h, read-out: GI
[15] = Cytotoxicity against human LOXIMVI cells assessed as growth inhibition at 10 uM after 48 hrs by SRB assay; assay type: functional; conditions: LOX IMVI, read-out: GI
NCI-H522 = assay: Cytotoxicity against human NCI-H522 cells assessed as growth level at 10 uM after 48 hrs by SRB assay; assay type: functional
[16] = Cytotoxicity against human COLO205 cells assessed as growth level at 10 uM after 48 hrs by SRB assay; assay type: functional, COLO 205
[17] = Cytotoxicity against human HL-60(TB) cells assessed as growth level at 10 uM after 48 hrs by SRB assay; assay type: functional
[18] = Cytotoxicity against human Hs578T cells assessed as growth level at 10 uM after 48 hrs by SRB assay; assay type: functional, Hs-578T
HT-29 [19] = assay: Cytotoxicity against human HT-29 cells assessed as growth inhibition at 10 uM after 48 hrs by SRB assay; assay type: functional; conditions: HT-29, 48 h, read-out: GI
MCF7 = assay: Cytotoxicity against human MCF7 cells assessed as growth inhibition at 10 uM after 48 hrs by SRB assay; assay type: functional; conditions: MCF7, 48 h, read-out: GI
NCI-H226 = assay: Cytotoxicity against human NCI-H226 cells assessed as growth inhibition at 10 uM after 48 hrs by SRB assay; assay type: functional; conditions: NCI-H226, 48 h, read-out: GI
[20] = Cytotoxicity against human LOXIMVI cells assessed as growth level at 10 uM after 48 hrs by SRB assay; assay type: functional, LOX IMVI
[21] = Cytotoxicity against human OVCAR8 cells assessed as growth level at 10 uM after 48 hrs by SRB assay; assay type: functional, OVCAR-8
MDA-MB-231 = assay: Cytotoxicity against human MDA-MB-231 cells assessed as growth inhibition at 10 uM after 48 hrs by SRB assay; assay type: functional; conditions: MDA-MB-231, 48 h, read-out: GI
MDA-MB-435 [22] = assay: Cytotoxicity against human MDA-MB-435 cells assessed as growth level at 10 uM after 48 hrs by SRB assay; assay type: functional
[23] = Cytotoxicity against human UACC62 cells assessed as growth inhibition at 10 uM after 48 hrs by SRB assay; assay type: functional; conditions: UACC-62, 48 h, read-out: GI
M14 = assay: Cytotoxicity against human M14 cells assessed as growth level at 10 uM after 48 hrs by SRB assay; assay type: functional
[24] = Cytotoxicity against human COLO205 cells assessed as growth inhibition at 10 uM after 48 hrs by SRB assay; assay type: functional; conditions: COLO 205, 48 h, read-out: GI
[25] = Cytotoxicity against human HL-60(TB) cells assessed as growth inhibition at 10 uM after 48 hrs by SRB assay; assay type: functional; conditions: HL-60, 48 h, read-out: GI
EKVX = assay: Cytotoxicity against human EKVX cells assessed as growth level at 10 uM after 48 hrs by SRB assay; assay type: functional
[26] = Cytotoxicity against human SF295 cells assessed as growth inhibition at 10 uM after 48 hrs by SRB assay; assay type: functional; conditions: SF-295, 48 h, read-out: GI
[27] = Cytotoxicity against human RPMI8226 cells assessed as growth level at 10 uM after 48 hrs by SRB assay; assay type: functional, RPMI-8226
CCRF-CEM = assay: Cytotoxicity against human CCRF-CEM cells assessed as growth level at 10 uM after 48 hrs by SRB assay; assay type: functional
[28] = Cytotoxicity against human HOP62 cells assessed as growth level at 10 uM after 48 hrs by SRB assay; assay type: functional, HOP-62
[29] = Cytotoxicity against human UACC257 cells assessed as growth level at 10 uM after 48 hrs by SRB assay; assay type: functional, UACC-257
786-0 [30] = assay: Cytotoxicity against human 786-0 cells assessed as growth level at 10 uM after 48 hrs by SRB assay; assay type: functional
[31] = Cytotoxicity against human HOP62 cells assessed as growth inhibition at 10 uM after 48 hrs by SRB assay; assay type: functional; conditions: HOP-62, 48 h, read-out: GI
[32] = Cytotoxicity against human SKOV3 cells assessed as growth inhibition at 10 uM after 48 hrs by SRB assay; assay type: functional; conditions: SK-OV-3, 48 h, read-out: GI
HT-29 [33] = assay: Cytotoxicity against human HT-29 cells assessed as growth level at 10 uM after 48 hrs by SRB assay; assay type: functional
[34] = Cytotoxicity against human Caki1 cells assessed as growth inhibition at 10 uM after 48 hrs by SRB assay; assay type: functional; conditions: CAKI-1, 48 h, read-out: GI

Compound C=C1CC[C@@H]2[C@](C)(COC(C)=O)[C@H](OC(C)=O)CC[C@@]2(C)[C@@H]1CC(NCc1cccc(Cl)c1)C1=CCOC1=O (mixture of isomers) has an inhibition of growth at 10 µM (MDA-MB-468 [1]) of 74.4%, an Activity [2] of 73.11% and an inhibition of growth at 10 µM (NCI-H322M) of 24.6%. For the same compound, the Activity [3] was 64.14%, the inhibition of growth at 10 µM [4] was 36.7% and the inhibition of growth at 10 µM (MDA-MB-435 [5]) was 48.4%. It also gave an Activity (MDA-MB-468 [6]) of 25.62%, an Activity [7] of 63.29% and an inhibition of growth at 10 µM (A549) of 45.8%. It also gave an inhibition of growth at 10 µM [8] of 69.9%, an Activity [9] of 53.28% and an Activity [10] of 38.27%. For the same compound, the Activity (A498) was 64.78%, the inhibition of growth at 10 µM [11] was 49.6% and the Activity [12] was 74.12%. For the same compound, the inhibition of growth at 10 µM [13] was 14.1%, the inhibition of growth at 10 µM (786-0 [14]) was 38% and the inhibition of growth at 10 µM [15] was 87.3%. For the same compound, the Activity (NCI-H522) was 52.45%, the Activity [16] was 36.77% and the Activity [17] was 21.57%. It also gave an Activity [18] of 94.35%, an inhibition of growth at 10 µM (HT-29 [19]) of 74.5% and an inhibition of growth at 10 µM (MCF7) of 57%. It also gave an inhibition of growth at 10 µM (NCI-H226) of 53.7%, an Activity [20] of 12.71% and an Activity [21] of 42.73%. The inhibition of growth at 10 µM (MDA-MB-231) was 35%, the Activity (MDA-MB-435 [22]) was 51.65% and the inhibition of growth at 10 µM [23] was 58.8%. For the same compound, the Activity (M14) was 55.02%, the inhibition of growth at 10 µM [24] was 63.2% and the inhibition of growth at 10 µM [25] was 78.4%. The Activity (EKVX) was 77.89%, the inhibition of growth at 10 µM [26] was 14.1% and the Activity [27] was 27.25%. For the same compound, the Activity (CCRF-CEM) was 42.29%, the Activity [28] was 56% and the Activity [29] was 25.21%. For the same compound, the Activity (786-0 [30]) was 62%, the inhibition of growth at 10 µM [31] was 44% and the inhibition of growth at 10 µM [32] was 26.9%. It also gave an Activity (HT-29 [33]) of 25.54% and an inhibition of growth at 10 µM [34] of 51.7%.

With C=C1CC[C@@H]2[C@](C)(COC(C)=O)[C@H](OC(C)=O)CC[C@@]2(C)[C@@H]1CC(NCCCC)C1=CCOC1=O (mixture of isomers) the inhibition of growth at 10 µM (MDA-MB-468 [1]) was 33.8%, the Activity [2] was 92.42% and the inhibition of growth at 10 µM (NCI-H322M) was 3.78%. For the same compound, the Activity [3] was 80.01%, the inhibition of growth at 10 µM [4] was 0.94% and the inhibition of growth at 10 µM (MDA-MB-435 [5]) was 11.4%. For the same compound, the Activity (MDA-MB-468 [6]) was 66.18%, the Activity [7] was 99.06% and the inhibition of growth at 10 µM (A549) was 18.8%. It also gave an inhibition of growth at 10 µM [8] of 48.8%, an Activity [9] of 76.97% and an Activity [10] of 95.01%. For the same compound, the Activity (A498) was 75.44%, the inhibition of growth at 10 µM [11] was 14.3% and the Activity [12] was 90.54%. For the same compound, the inhibition of growth at 10 µM [13] was 22.1%, the inhibition of growth at 10 µM (786-0 [14]) was 3.93% and the inhibition of growth at 10 µM [15] was 9.61%. It also gave an Activity (NCI-H522) of 79.13%, an Activity [16] of 82.08% and an Activity [17] of 93.82%. The Activity [18] was 97.68%, the inhibition of growth at 10 µM (HT-29 [19]) was 17.4% and the inhibition of growth at 10 µM (MCF7) was 17.1%. It also gave an inhibition of growth at 10 µM (NCI-H226) of 24.3%, an Activity [20] of 90.39% and an Activity [21] of 89.63%. The inhibition of growth at 10 µM (MDA-MB-231) was 20.9%, the Activity (MDA-MB-435 [22]) was 88.61% and the inhibition of growth at 10 µM [23] was 27.6%. It also gave an Activity (M14) of 92.75%, an inhibition of growth at 10 µM [24] of 17.9% and an inhibition of growth at 10 µM [25] of 6.18%. The Activity (EKVX) was 71.43%, the inhibition of growth at 10 µM [26] was 5.72% and the Activity [27] was 60.49%. The Activity (CCRF-CEM) was 80.69%, the Activity [28] was 93.96% and the Activity [29] was 85.16%. It also gave an Activity (786-0 [30]) of 96.07%, an inhibition of growth at 10 µM [31] of 6.04% and an inhibition of growth at 10 µM [32] of 7.58%. The Activity (HT-29 [33]) was 82.56% and the inhibition of growth at 10 µM [34] was 9.05%.
